Earlier results in patent US6770729B2, “Polymer compositions containing bioactive agents and methods for their use” (priority 2002, dated 2004).

Molecular target: avidin (Gallus gallus, UniProt P02701)
Sequence (P02701 25-152): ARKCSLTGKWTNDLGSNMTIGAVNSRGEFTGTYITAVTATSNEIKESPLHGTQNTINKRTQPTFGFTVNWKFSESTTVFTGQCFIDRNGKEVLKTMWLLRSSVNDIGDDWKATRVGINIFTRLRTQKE

## O=C(O)CCCC[C@@H]1SC[C@@H]2NC(=O)N[C@@H]21 [biotin]
Avidin tetramer binds 4 biotin molecules in solution, noncovalent interaction
  binding constant: about 10^15 M^−1
avidin-biotin interaction, dissociation of the complex
  half-life in vivo: about 89 days
